Values of other authors, collected in patent US8420593B1, “Compositions and methods for regulating membrane potential” (priority 2006, dated 2013).
Where a name gives a salt, the structure may show the parent alone. Read-outs that look alike come from different tables or passages of the source.

Experiments:
spinal cord injury [1] = settings: days 25, 26 and 27
[2] = tested on: chronic spinal cord injury; settings: in vivo
spinal cord injury [3] = tested on: spinal cord injury
[4] = tested on: potassium currents in PC12 cells

| SMILES | motor function (open field walking analysis) (spinal cord injury [1]; 0.6 mg/kg, ip, compared with HP184) | side effects associated with central nervous system activation [2] | motor function (open field walking) (spinal cord injury [3]; 3 mg/kg, po, long-standing (35 day post injury) injury, moderate intensity) | improvement in walking ability, multiple dose studies (spinal cord injury [3]; once a day oral dosing at 3, 1 and 0.3 mg/kg, moderately injured rats, compression model) | motor function (open field walking analysis) (spinal cord injury [1]; 3, 10 and 20 mg/kg, po, established (25 day post injury) injury, mild intensity) | activity on sodium channels (sodium channels) | activity on potassium currents [4] |
| --- | --- | --- | --- | --- | --- | --- | --- |
| Nc1ccncc1 [4-AP, 4-aminopyridine] | This improvement was equaled by the improvement observed with 4-AP | restlessness, confusion, and infrequently reported findings of generalized tonic-clonic seizure | – | – | – | – | – |
| CCCN(c1ccncc1F)n1cc(C)c2ccccc21 [HP184, N-[N-propyl]-N-[3-fluoro-4-pyridinyl]-1H-3-methylindole-1-amine hydrochloride] | – | – | significantly improved motor function | confirmed the effectiveness | significantly improved motor function | use- and frequency dependent blocker of sodium channels | voltage dependent blocker of potassium currents |
